Reference: patent US12680065B2, “Artificial placenta and methods of preparation” (The Trustees of the University of Pennsylvania, priority 2015, dated 2026)

Key:
[1] = tested on: trophoblast cells; test: β-hCG ELISA of maternal compartment perfusate; format: cell-based, human; conditions: 50 uM forskolin; no detectable β-hCG in the absence of forskolin
Description: Following the formation of a confluent epithelial monolayer on the membrane surface in the upper microchannel, the apical side of the epithelium can be treated with forskolin to activate the protein kinase A pathway in the cultured trophoblasts. A stock solution of forskolin ([…] 5 mg/mL in DMSO) can be diluted with F-12K medium to a final concentration of 50 uM and perfused through the upper microchannel. After 72 hours of forskolin treatment, the trophoblast cells can be fixed in 4% PFA, permeabilized in Triton-X 100, and then incubated with 2% BSA in PBS for immunofluorescence staining. To analyze changes in junctional protein expression, the samples can be incubated with anti-E-cadherin antibody (Life Technologies) in 2% BSA, followed by secondary antibody and DAPI. Additionally, media perfusate can be collected at 48, 72, and 96 hours from both untreated and forskolin-treated devices. The collected samples can be analyzed using a human chorionic gonadotropin beta (β-hCG) ELISA kit (Abcam) to quantify the levels of β-hCG produced by the trophoblast population at each time point. […] Accordingly, the production of the […] of hCG in the maternal compartment can be measured to quantitatively examine syncytialization. […]

[2] = tested on: BeWo cells; test: Forskolin-induced trophoblast syncytialization in the microfluidic device (immunofluorescence); format: cell-based, human
Description: Following the formation of a confluent epithelial monolayer on the membrane surface in the upper microchannel, the apical side of the epithelium can be treated with forskolin to activate the protein kinase A pathway in the cultured trophoblasts. A stock solution of forskolin (Sigmal 5 mg/mL in DMSO) can be diluted with F-12K medium to a final concentration of 50 uM and perfused through the upper microchannel. After 72 hours of forskolin treatment, the trophoblast cells can be fixed in 4% PFA, permeabilized in Triton-X 100, and then incubated with 2% BSA in PBS for immunofluorescence staining. To analyze changes in junctional protein expression, the samples can be incubated with anti-E-cadherin antibody (Life Technologies) in 2% BSA, followed by secondary antibody and DAPI. Additionally, media perfusate can be collected at 48, 72, and 96 hours from both untreated and forskolin-treated devices. The collected samples can be analyzed using a human chorionic gonadotropin beta (β-hCG) ELISA kit (Abcam) to quantify the levels of β-hCG produced by the trophoblast population at each time point.
Accordingly, when the BeWo cells in the maternal compartment are exposed to forskolin, they can begin to undergo cell-cell fusion as illustrated by nuclear aggregation that can be evident at 72 hours of forskolin treatment (FIG. 9B). […]

C=C[C@@]1(C)CC(=O)[C@]2(O)[C@@]3(C)[C@@H](O)CCC(C)(C)[C@@H]3[C@H](O)[C@H](OC(C)=O)[C@@]2(C)O1 [forskolin]
time to production of hCG by trophoblast cells [1]: ≤ 48 h
fraction of BeWo population undergoing cell-cell fusion (nuclear aggregation) ([2]; 50 uM forskolin in upper microchannel, 72 hours): approximately 50%
effect on cell viability ([2]; 50 uM forskolin, BeWo cells in maternal compartment): does not necessarily exert deleterious effects on cell viability
